Experimental data from patent publication US7265099B1, “Use of chemical chelators as reversal agents for drug-induced neuromuscular block” (Organon N.V., priority 1999, dated 2007).
Marks after values point to notes of the source that are not given here.

Experiments:
[1] = test system: neuromuscular block induced by rocuronium in isolated mouse hemidiaphragm; test: Reversal of neuromuscular block in vitro: isolated mouse hemidiaphragm preparation; settings: for Mouse hemidiaphragm: maximum reversal (%) / concentration of chemical chelator at maximum reversal: 3.1 μM rocuronium; for concentration of chemical chelator at maximum reversal: mouse hemidiaphragm; for Reversal of the neuromuscular blocking action of rocuronium (in words): rocuronium-induced block
Method: Hemidiaphragms, with phrenic nerves attached, were removed from euthanized male mice (Institute of Cancer Research; bodyweight: 20–60 g). The preparations were mounted on a tissue holder and placed in a tissue bath filled with a modified Krebs-Henseleit solution (composition: 118 mM NaCl, 30 mM NaHCO3, 5 mM KCl, 1 mM KH2PO4, 1 mM MgSO4, 30 mM glucose and 2.5 mM CaCl2) at 37° C. and bubbled with 95% oxygen and 5% carbondioxide. One end of the preparation was connected with a siliconized silk suture to a Grass FT03 force-displacement transducer. An initial force of 10 mN was applied. The phrenic nerve was placed on a bipolar platinum electrode and was stimulated with rectangular pulses of 0.2 ms duration at 20 s (0.05 Hz) intervals at a supramaximal voltage, using a Grass S88 Stimulator. Contractions were recorded on a four channel Grass 79D recorder.
Increasing amounts of reversal agent were then administered into the bath at intervals of 10 min. The % maximum reversal was established. At the end of the experiment, the measured muscle contractions force was plotted against the concentration of reversal agent, and using regression analysis techniques, the 50% reversal concentration was calculated.
After induction of neuromuscular block by rocuronium, the % maximum reversal produced by the addition of a number of γ-cyclodextrin derivatives (compounds 11–16), a cyclic octasaccharide comprising 4 rhamnosyl-mannopyranosyl units (compound 24), or a number of paracyclophane derivatives (compounds 17–21 and 23) are presented in Table II.
Reversal of neuromuscular block in vitro was carried out using the mouse hemidiaphragm preparation as described in Example 6.

[2] = test system: steady-state neuromuscular block induced by pancuronium bromide (Pan); test: Reversal of neuromuscular blockade in vivo, anaesthetized guinea pig, pancuronium; settings: Pan infusion, 85–90% block, anaesthetized guinea pigs, i.v. reversal agent; mean
Method: (§1) Male Dunkin-Hartley guinea pigs (bodyweight: 600–900 g) were anaesthetized by i.p. administration of 10 mg/kg pentobarbitone and 1000 mg/kg urethane. After tracheotomy, the animals were artificially ventilated using a Harvard small animal ventilator. A catheter was placed into the carotid artery for continuous monitoring of arterial blood pressure and the taking of blood samples for blood gas analysis. Heart rate was derived from the blood pressure signal. The sciatic nerve was stimulated (rectangular pulses of 0.5 ms duration at 10 s (0.1 Hz) intervals at a supramaximal voltage, using a Grass S88 Stimulator) and the force of M. gastrocnemius contractions was measured using a Grass FT03 force-displacement transducer. Contractions, blood pressure and heart rate were recorded on a multichannel Grass 7D recorder. Catheters were placed in both jugular veins. One catheter was used for the continuous infusion of a neuromuscular blocking agent. The infusion rate of the neuromuscular blocking agent was increased until a steady-state block of 85–90% was obtained. The other catheter was used for administration of increasing doses of the reversal agent. During continuous infusion of the neuromuscular blocking agent, single doses of increasing concentration of reversal agent were given. At the end of the experiment, the measured force of muscle contractions was plotted against the concentration of reversal agent, and using regression analysis techniques, the 50% reversal concentration was calculated.

[3] = test system: steady-state neuromuscular block induced by cis-atracurium (Cis-Atr); test: Reversal of neuromuscular blockade in vivo, anaesthetized guinea pig, cis-atracurium; settings: Cis-Atr infusion, 85–90% block, anaesthetized guinea pigs, i.v. reversal agent; mean
Method: as §1

[4] = test system: steady-state neuromuscular block induced by vecuronium bromide (Vec); test: Reversal of neuromuscular blockade in vivo, anaesthetized guinea pig, vecuronium; settings: Vec infusion, 85–90% block, anaesthetized guinea pigs, i.v. reversal agent; mean
Method: as §1

[5] = test system: steady-state neuromuscular block induced by atracurium besilate (Atr); test: Reversal of neuromuscular blockade in vivo, anaesthetized guinea pig, atracurium; settings: Atr infusion, 85–90% block, anaesthetized guinea pigs, i.v. reversal agent; mean
Method: as §1

[6] = test system: steady-state neuromuscular block induced by rocuronium bromide (Roc); test: Reversal of neuromuscular blockade in vivo, anaesthetized guinea pig, rocuronium; settings: Roc infusion, 85–90% block, anaesthetized guinea pigs, i.v. reversal agent; mean
Method: as §1
Reversal of neuromuscular block in vivo, induced by rocuronium bromide, was carried out as described in Example 5.

[7] = test system: steady-state neuromuscular block induced by suxamethonium chloride (Sux; succinylcholine); test: Reversal of neuromuscular blockade in vivo, anaesthetized guinea pig, suxamethonium; settings: Sux infusion, 85–90% block, anaesthetized guinea pigs, i.v. reversal agent; mean
Method: as §1

[8] = test system: steady-state neuromuscular block induced by mivacurium chloride (Miv); test: Reversal of neuromuscular blockade in vivo, anaesthetized guinea pig, mivacurium; settings: Miv infusion, 85–90% block, anaesthetized guinea pigs, i.v. reversal agent; mean
Method: as §1

[9] = test system: steady-state neuromuscular block induced by rapacuronium bromide (Rap; Org 9487); test: Reversal of neuromuscular blockade in vivo, anaesthetized guinea pig, rapacuronium; settings: Rap infusion, 85–90% block, anaesthetized guinea pigs, i.v. reversal agent; mean
Method: as §1

[10] = test system: steady-state neuromuscular block induced by tubocurarine chloride (T-C); test: Reversal of neuromuscular blockade in vivo, anaesthetized guinea pig, tubocurarine; settings: T-C infusion, 85–90% block, anaesthetized guinea pigs, i.v. reversal agent; mean
Method: as §1

[11] = Complexation of rocuronium bromide by chemical chelators (1H NMR, 303 K); assay type: binding; settings: NMR spectroscopy at 303 K, D2O, curve fitting of proton chemical shift changes
Method: All the ^1H spectra (303 K) were recorded at 400.13 MHz with 128 scans, sw=12 ppm, TD=32 k and zero filled to 64 k real points in processing. All experiments were measured at 303K.
Determination of Stoichiometry
Stock solutions of rocuronium bromide and γ-cyclodextrin (15) were prepared, both with a concentration of 6.02 mM. From these, sixteen solutions were prepared (with the mole % of rocuronium ranging from 0-100) by taking aliquots of 0–800 μl of the rocuronium bromide solution. Aliquots of the γ-cyclodextrin solution, 800–0 μl were added to make the solution a total volume of 800 μl and 100 mole % (i.e. 6.02 mM of [rocuronium bromide+γ-cyclodextrin]). ^1H-NMR spectra were recorded as described above.
If the chemical shift change of H9α in rocuronium bromide is defined as Δδ then a plot of [Δδ*(mole % rocuronium bromide)] vs. [mole % rocuronium bromide] gives a so called Job Plot by the method of continuous variation (Connors K. A.: Binding constants, The measurement of Molecular Complex Stability; Wiley-Interscience; New York, 1987, pp 24–28). The maximum in this plot is indicative for the stoichiometry of the complex.
Determination of the Association Constants
A stock solution of rocuronium bromide: 0.821 mM in D2O was prepared. […]
^1H NMR spectra were recorded as descibed above. […]

Compound	Mouse hemidiaphragm: maximum reversal (%) [1] [%]	concentration of chemical chelator at maximum reversal [1] [µM]	Dose (ED50) producing 50% reversal of steady-state neuromuscular block [2]	Dose (ED50) producing 50% reversal of steady-state neuromuscular block [3]	Dose (ED50) producing 50% reversal of steady-state neuromuscular block [4]	Dose (ED50) producing 50% reversal of steady-state neuromuscular block [5]	Dose (ED50) producing 50% reversal of steady-state neuromuscular block [6]	Dose (ED50) producing 50% reversal of steady-state neuromuscular block [7]	Dose (ED50) producing 50% reversal of steady-state neuromuscular block [8]	Dose (ED50) producing 50% reversal of steady-state neuromuscular block [9]	Dose (ED50) producing 50% reversal of steady-state neuromuscular block [10]	Reversal of the neuromuscular blocking action of rocuronium (in words) [1]	Association constant (Ka, M^−1) of 1:1 complex of rocuronium bromide and cyclic host compound [11]
γ-cyclodextrin-phospate sodium salt (DS = 3) [Compound 11]	34	360	197 (2) μmol.kg^−1	204 (2) μmol.kg^−1	67 (3) μmol.kg^−1	113 (2) μmol.kg^−1	64 (3) μmol.kg^−1	160 (2) μmol.kg^−1	292 (2) μmol.kg^−1	80 (3) μmol.kg^−1	160 (2) μmol.kg^−1	–	–
2-hydroxypropyl-γ-CD (DS = 4) [Compound 16]	71	360	440 (3) μmol.kg^−1	878 (2) μmol.kg^−1	123 (3) μmol.kg^−1	828 (2) μmol.kg^−1	12 (3) μmol.kg^−1	1340 (2) μmol.kg^−1	1674 (2) μmol.kg^−1	134 (3) μmol.kg^−1	909 (2) μmol.kg^−1	–	–
carboxyethyl-γ-CD (DS = 3.8) [Compound 14]	87	144	141 (3) μmol.kg^−1	1558 (3) μmol.kg^−1	25 (3) μmol.kg^−1	421 (2) μmol.kg^−1	7 (3) μmol.kg^−1	1294 (2) μmol.kg^−1	399 (2) μmol.kg^−1	43 (3) μmol.kg^−1	294 (2) μmol.kg^−1	efficiently blocked	–
carboxymethyl-γ-CD (DS = 3.2) [Compound 13]	88	180	641 (4) μmol.kg^−1	893 (2) μmol.kg^−1	30 (3) μmol.kg^−1	990 (2) μmol.kg^−1	25 (4) μmol.kg^−1	999 (2) μmol.kg^−1	964 (3) μmol.kg^−1	227 (2) μmol.kg^−1	431 (2) μmol.kg^−1	efficiently blocked	–
OC[C@H]1O[C@@H]2O[C@H]3[C@H](O)[C@@H](O)[C@@H](O[C@H]4[C@H](O)[C@@H](O)[C@@H](O[C@H]5[C@H](O)[C@@H](O)[C@@H](O[C@H]6[C@H](O)[C@@H](O)[C@@H](O[C@H]7[C@H](O)[C@@H](O)[C@@H](O[C@H]8[C@H](O)[C@@H](O)[C@@H](O[C@H]1[C@H](O)[C@H]2O)O[C@@H]8CO)O[C@@H]7CO)O[C@@H]6CO)O[C@@H]5CO)O[C@@H]4CO)O[C@@H]3CO [Compound 9, β-cyclodextrin]	–	–	1050 (2) μmol.kg^−1	–	636 (1) μmol.kg^−1	–	20 (3) μmol.kg^−1	–	–	358 (3) μmol.kg^−1	–	–	3,100–3,900* M^−1
